Measured values published in the NIST ThermoML archive (doi:10.1007/s10765-016-2150-1).
Numbers after ± are expanded uncertainties.

Conditions: Liquid, Oscillating viscometer

O=[N+]([O-])[O-].[Li+] [lithium nitrate]
viscosity (544.9 K): 5.15 ± 0.32 mPa·s
viscosity (554.5 K): 4.457 ± 0.27 mPa·s
viscosity (571.7 K): 4.195 ± 0.26 mPa·s
viscosity (592.1 K): 3.854 ± 0.24 mPa·s
viscosity (595.9 K): 3.618 ± 0.22 mPa·s
viscosity (597 K): 3.72 ± 0.23 mPa·s
viscosity (601.3 K): 3.549 ± 0.22 mPa·s
viscosity (603.3 K): 3.373 ± 0.21 mPa·s
viscosity (619.2 K): 3.075 ± 0.19 mPa·s
viscosity (623.2 K): 3.024 ± 0.18 mPa·s
viscosity (627.2 K): 3.04 ± 0.19 mPa·s
viscosity (662.7 K): 2.448 ± 0.15 mPa·s
viscosity (688.8 K): 2.169 ± 0.14 mPa·s
viscosity (689.2 K): 2.094 ± 0.13 mPa·s
